Data reported in patent US11690850B2, “Inhibitors of receptor interacting protein kinase I for the treatment of disease” (Board of Regents, The University of Texas System, priority 2019, dated 2023).

Key:
[1] = target: RIPK1 (Homo sapiens (Human), UniProt Q13546); experiment: ADP-Glo Kinase Assay; assay type: biochemical; details: 5 nM RIPK1 protein, 50 μM ATP, 6 hr reaction, average value across multiple runs
Protocol: In order to measure RIPK1 activity the ADP-Glo kinase assay (Promega, Catalog #V7002) was used to measure the conversion of ATP to ADP. This enzymatic assay was performed in a 384-well white, Optiplate (Perkin Elmer, Catalog #6007299) with assay buffer consisting of 50 mM HEPES pH 7.5 (Gibco, Catalog #15630-080), 50 mM NaCl (Teknova, Catalog #S0252), 30 mM MgCl2 (Ambion, Catalog #AM9530G), 1 mM DTT (Santa Cruz Biotechnology, Catalog #sc-29089), 0.05% BSA (Sigma, Catalog #A3059-50G) and 0.02% CHAPS (Sigma, Catalog #C5070-5G). Stock solutions of the test compounds were prepared in 100% DMSO (Sigma, Catalog #D2650) and serially diluted 1:3 using 100% DMSO. Compounds were additionally diluted 1:40 in assay buffer, and 2 μL/well were transferred to the assay plate. 4 μL/well (final concentration of 5 nM) of RIPK1 protein (SignalChem, Catalog #R07-11G-05) diluted in assay buffer and added to the assay plate followed by a 10 minute preincutation at room temperature. 4 μL/well of ATP (Promega, Catalog #V7002) (final concentration of 50 μM) diluted in assay buffer were then added to the assay plate followed by a 6 hr reaction time. Final concentrations of RIPK1 and ATP refer to a 10 μL volume. Luminescence was measured using a BioTek Synergy™ NEO plate reader. IC50 values were calculated using a four-parameter logistic curve fit using Genedata Screener software. Results are shown below in Table 4, where the average value across multiple runs is given.

[2] = tested on: human monocytic cell line U937; experiment: Human U937 Cellular Necroptosis Assay; assay type: cell-based; details: U-937; U937 cells stimulated with 25 ng/mL human TNFalpha and 25 μM z-VAD-FMK, 22 hr, viability by Cell Titer-Glo 2.0; average value across multiple runs; read-out: hU937 IC50
Protocol: Human U937 Cellular Necroptosis Assay
The human monocytic cell line U937 (CRL-1593.2) was purchased from ATCC. The cells were routinely maintained in RPMI-1640 Medium (Gibco, Catalog #11875-093) supplemented with 10% heat inactivated fetal bovine serum (Gibco, Catalog #16140-071), 100 units/mL penicillin and 100 μg/mL streptomycin (Gibco, Catalog #15140-122), in a humidified incubator (37° C., 5% CO2). For the assay, cells were resuspended in RPMI-1640 phenol red free Media (Gibco, Catalog #11835-030) supplemented with 10% fetal bovine serum (Sigma, Catalog #F2442), 100 units/mL penicillin and 100 ug/mL streptomycin. Cells were stimulated with 25 ng/mL human TNFalpha (Cell Sciences, Catalog #CSI15659B) and 25 μM z-VAD-FMK (R&D Systems, Catalog #FMK001) followed by seeding 5000 cells per well in a volume of 40 μL to a white, CulturPlate-384 (Perkin Elmer, Catalog #6007680). Stock solutions of the test compounds were prepared in 100% DMSO (Sigma, Catalog #D2650) and serially diluted 1:3 using 100% DMSO. Compounds were additionally diluted 1:40 in assay medium, and 10 μL/well was transferred to the plate. Following the compound addition the plate was incubated at 37° C. and 5% CO2 for 22 hr. After 22 hr, viability was assessed with the addition of 20 μL of Cell Titer-Glo 2.0 (Promega, Catalog #G9243). The tissue culture plate was shaken on an orbital shaker at 300 RPM for 15 minutes at room temperature in the dark. Luminescence was measured using a PerkinElmer Envision™ plate reader. IC50 values were calculated using a four-parameter logistic curve fit using Genedata Screener software. Results are shown below in Table 5, where the average value across multiple runs is given.

RIPK1, sequence (Q13546 1-327): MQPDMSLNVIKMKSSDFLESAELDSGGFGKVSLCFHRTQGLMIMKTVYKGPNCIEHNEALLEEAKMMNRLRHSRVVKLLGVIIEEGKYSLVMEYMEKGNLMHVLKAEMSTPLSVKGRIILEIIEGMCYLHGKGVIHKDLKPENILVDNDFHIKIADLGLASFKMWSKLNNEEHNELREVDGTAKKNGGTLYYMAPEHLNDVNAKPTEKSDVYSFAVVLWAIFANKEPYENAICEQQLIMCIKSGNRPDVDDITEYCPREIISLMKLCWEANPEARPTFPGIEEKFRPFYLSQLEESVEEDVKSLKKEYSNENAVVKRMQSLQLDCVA

| Structure (SMILES) | IC50 [1] | IC50 [2] |
| --- | --- | --- |
| Cc1cccc(-n2nc(C(=O)NC3CCc4ccccc4NC3=O)c(=O)cc2C)c1 (stereo not shown) [Example 64, 6-methyl-4-oxo-N-(2-oxo-2,3,4,5-tetrahydro-1H-benzo[b]azepin-3-yl)-1-(m-tolyl)-1,4-dihydropyridazine-3-carboxamide] | 43.1 nM | 77.8 nM |
| COc1ccc(-n2nc(C(=O)NC3CCc4ccccc4NC3=O)c(=O)cc2C)cc1 (stereo not shown) [Example 65, 1-(4-methoxyphenyl)-6-methyl-4-oxo-N-(2-oxo-2,3,4,5-tetrahydro-1H-benzo[b]azepin-3-yl)-1,4-dihydropyridazine-3-carboxamide] | 47.6 nM | 124 nM |
| Cc1cc(=O)c(C(=O)Nc2cc(Cl)c3c(c2)NC(=O)C3)nn1-c1ccccc1 [Example 32, N-(4-chloro-2-oxoindolin-6-yl)-6-methyl-4-oxo-1-phenyl-1,4-dihydropyridazine-3-carboxamide] | 2250 nM | 5820 nM |
| Cc1ccc(-n2nc(C(=O)NC3CCc4ccccc4NC3=O)c(=O)cc2C)cn1 (stereo not shown) [Example 51, 6-methyl-1-(6-methylpyridin-3-yl)-4-oxo-N-(2-oxo-2,3,4,5-tetrahydro-1H-benzo[b]azepin-3-yl)-1,4-dihydro-pyridazine-3-carboxamide] | 1970 nM | 1700 nM |
| Cc1cc(=O)c(C(=O)N[C@H]2COc3cc(C#N)ccc3N(C)C2=O)nn1-c1ccc(C#N)cc1 [Example 60, (S)-N-(8-cyano-5-methyl-4-oxo-2,3,4,5-tetrahydrobenzo[b][1,4]oxazepin-3-yl)-1-(4-cyanophenyl)-6-methyl-4-oxo-1,4-dihydropyridazine-3-carboxamide] | 84.9 nM | 424 nM |
| Cc1cc(=O)c(C(=O)Nc2cccc(Cl)c2F)nn1-c1ccccc1F [Example 8, N-(3-chloro-2-fluorophenyl)-1-(2-fluorophenyl)-6-methyl-4-oxo-1,4-dihydropyridazine-3-carboxamide] | 53 nM | 172 nM |
| Cc1cc(=O)c(C(=O)Nc2c3ccccc3nc3ccccc23)nn1-c1ccccc1 [Example 33, N-(acridin-9-yl)-6-methyl-4-oxo-1-phenyl-1,4-dihydropyridazine-3-carboxamide] | 2190 nM | 8490 nM |
| Cc1cc(=O)c(C(=O)N[C@H]2COc3cc(C#N)ccc3N(C)C2=O)nn1-c1cccc(F)c1 [Example 61, (S)-N-(8-cyano-5-methyl-4-oxo-2,3,4,5-tetrahydrobenzo[b][1,4]oxazepin-3-yl)-1-(3-fluorophenyl)-6-methyl-4-oxo-1,4-dihydropyridazine-3-carboxamide] | 57.4 nM | 88 nM |
| Cc1cc(=O)c(C(=O)NC2CCn3nccc3N(C)C2=O)nn1-c1ccccc1 (stereo not drawn) [Example 72, 6-methyl-N-(4-methyl-5-oxo-5,6,7,8-tetrahydro-4H-pyrazolo[1,5-a][1,3]diazepin-6-yl)-4-oxo-l-phenyl-1,4-dihydropyridazine-3-carboxamide] | 90.6 nM | 222 nM |
| COc1cccc(-n2nc(C(=O)NC3CCc4ccccc4NC3=O)c(=O)cc2C)c1 (stereo not shown) [Example 67, 1-(3-methoxyphenyl)-6-methyl-4-oxo-N-(2-oxo-2,3,4,5-tetrahydro-1H-benzo[b]-azepin-3-yl)-1,4-dihydropyridazine-3-carboxamide] | 68.2 nM | 281 nM |
| Cc1cc(=O)c(C(=O)NC2CCc3cc(F)cc(F)c3NC2=O)nn1-c1ccccc1 (stereo not shown) [Example 48, N-(7,9-difluoro-2-oxo-2,3,4,5-tetrahydro-1H-benzo[b]azepin-3-yl)-6-methyl-4-oxo-1-phenyl-1,4-dihydropyridazine-3-carboxamide] | 51 nM | 70 nM |
| Cc1cc(=O)c(C(=O)NC2CCc3cc(F)cc(F)c3N(C)C2=O)nn1-c1ccccc1 (stereo not shown) [Example 49, N-(7,9-difluoro-1-methyl-2-oxo-2,3,4,5-tetrahydro-1H-benzo[b]azepin-3-yl)-6-methyl-4-oxo-1-phenyl-1,4-dihydropyridazine-3-carboxamide] | 64 nM | 66 nM |
| Cc1cc(=O)c(C(=O)NC2CCc3ccccc3NC2=O)nn1-c1ccc(C#N)cc1 (stereo not shown) [Example 56, 1-(4-cyanophenyl)-6-methyl-4-oxo-N-(2-oxo-2,3,4,5-tetrahydro-1H-benzo[b]-azepin-3-yl)-1,4-dihydropyridazine-3-carboxamide] | 85 nM | 292 nM |
| Cc1cc(=O)c(C(=O)NC2CCc3ccccc3NC2=O)nn1-c1cccc(C#N)c1 (stereo not shown) [Example 53, 1-(3-cyanophenyl)-6-methyl-4-oxo-N-(2-oxo-2,3,4,5-tetrahydro-1H-benzo[b]azepin-3-yl)-1,4-dihydropyridazine-3-carboxamide] | 652 nM | 591 nM |

Now those with a lower IC50 [1], led by results:

| IC50 [1] | Structure (SMILES) | IC50 [2] |
| --- | --- | --- |
| 36 nM | Cc1c(Br)c(=O)c(C(=O)NC2CCc3ccccc3NC2=O)nn1-c1ccccc1 (stereo not shown) [Example 42, 5-Bromo-6-methyl-4-oxo-N-(2-oxo-2,3,4,5-tetrahydro-1H-benzo[b]azepin-3-yl)-1-phenyl-1,4-dihydropyridazine-3-carboxamide] | 141 nM |
| 35 nM | Cc1cc(=O)c(C(=O)NC2CCc3ccccc3N(C)C2=O)nn1-c1ccccc1 (stereo not shown) [Example 41, 6-methyl-N-(1-methyl-2-oxo-2,3,4,5-tetrahydro-1H-benzo[b]azepin-3-yl)-4-oxo-1-phenyl-1,4-dihydropyridazine-3-carboxamide] | 39 nM |
| 33.5 nM | Cc1cc(=O)c(C(=O)NC2CCc3ccccc3NC2=O)nn1-c1ccccc1F (stereo not shown) [Example 59, 1-(2-fluorophenyl)-6-methyl-4-oxo-N-(2-oxo-2,3,4,5-tetrahydro-1H-benzo[b]-azepin-3-yl)-1,4-dihydropyridazine-3-carboxamide] | 74 nM |
| 33 nM | Cc1cc(=O)c(C(=O)N[C@H]2COc3cc(C#N)ccc3N(C)C2=O)nn1-c1ccccc1 [Example 55, (S)-N-(8-cyano-5-methyl-4-oxo-2,3,4,5-tetrahydrobenzo[b][1,4]oxazepin-3-yl)-6-methyl-4-oxo-l-phenyl-1,4-dihydropyridazine-3-carboxamide] | 54 nM |
| 30.9 nM | Cc1ccc(-n2nc(C(=O)NC3CCc4ccccc4NC3=O)c(=O)cc2C)cc1 (stereo not shown) [Example 71, 6-methyl-4-oxo-N-(2-oxo-2,3,4,5-tetrahydro-1H-benzo[b]azepin-3-yl)-1-(p-tolyl)-1,4-dihydropyridazine-3-carboxamide] | 50.2 nM |
| 30.2 nM | Cc1cc(=O)c(C(=O)NC2CCc3ccccc3NC2=O)nn1-c1ccc(Cl)cc1 (stereo not shown) [Example 66, 1-(4-chlorophenyl)-6-methyl-4-oxo-N-(2-oxo-2,3,4,5-tetrahydro-1H-benzo[b]azepin-3-yl)-1,4-dihydro-pyridazine-3-carboxamide] | 80.4 nM |
| 28 nM | Cc1c(Cl)c(=O)c(C(=O)NC2CCc3cc(Cl)ccc3N(C)C2=O)nn1-c1ccccc1 (stereo not shown) [Example 45, 5-Chloro-N-(7-chloro-1-methyl-2-oxo-2,3,4,5-tetrahydro-1H-benzo[b]azepin-3-yl)-6-methyl-4-oxo-1-phenyl-1,4-dihydropyridazine-3-carboxamide] | 72 nM |
| 28 nM | Cc1cc(=O)c(C(=O)N[C@H]2COc3cccnc3N(C)C2=O)nn1-c1ccccc1 [Example 50, (S)-6-methyl-N-(5-methyl-4-oxo-2,3,4,5-tetrahydropyrido[3,2-b][1,4]oxazepin-3-yl)-4-oxo-1-phenyl-1,4-dihydropyridazine-3-carboxamide] | 33 nM |
| 20 nM | Cc1cc(=O)c(C(=O)NC2CCc3ccccc3NC2=O)nn1-c1ccc(F)cc1 (stereo not shown) [Example 57, 1-(4-fluorophenyl)-6-methyl-4-oxo-N-(2-oxo-2,3,4,5-tetrahydro-1H-benzo[b]-azepin-3-yl)-1,4-dihydropyridazine-3-carboxamide] | 41 nM |
